Results reported in patent publication US7087721B2, “Compositions, kits and treating methods for alteration cell-cell adhesion, transport, or permeation properties of tissues” (priority 2003, dated 2006).
“Also recorded” adds a separate entry of the source.

Tests used:
Type in all cases: cell-based, human
[1] = tested on: TMG-expressed A2058 cells; assay: Carbohydrate specificity for TM-mediated cell adhesion, TMG cells; details: 37° C. overnight, light microscopy
Procedure: A variety of simple carbohydrate (D-mannose, D-galactose, D-lactose, D-glucose, D-xylose), heparin, LMW heparin, chondroitin sulfate A, chondroitin sulfate B, and chondroitin sulfate C were tested to determine their ability to block cell-cell adhesion of the TMG cells. In these experiments, the carbohydrate to be tested was added to the cell monolayer to compare its ability to compete with the TMG. The plates were then incubated at 37° C. for overnight and examined by light microscopy (Leica Model DM IL).
FIG. 8. Effect of different carbohydrates on the cell adhesion of TMG cells. TMG-expressed A2058 cells were challenged with 20 mg/ml of monosaccharides (including D-glucose, D-galactose, D-lactose, D-xylose, D-mannose), 20 mg/ml of chondroitin sulfate A, B, C, or 15 mg/ml of heparin, LMW heparin. Following incubation at 37° C. overnight, images were obtained. Each image is representative of the observations from three separate experiments.

A2058TMG cells = assay: Calcium-switch method, A2058TMG cells; details: 4 mM EGTA, 40 min
Procedure: (§1) Cells were grown overnight on glass coverslips at a constant density (5×10^4 cells/well) in 24 well culture plates. The cells were serum-starved for 8 h and Ca^2+ was removed by incubation with DMEM medium containing 4 mM ethyleneglycol-bis-(Amino-Ethyl-Ether) N,N,N′,N′-tetraacetic acid (EGTA) and 1 mM MgCl2 at 37° C. After 1 h, the DMEM medium containing 1.8 mM Ca^2+ was added to replace the Ca^2+-free medium. In control experiments, cells received fresh media in the absence of EGTA. In selected experiments, 10 μg/ml of anti-TM lectin-like antibody, 10 μg/ml of isotype-specific control antibody or anti-E-cadherin antibody (20 μg/ml) was added to the Ca^2+-containing medium.
(§2) FIG. 6. TM participates in Ca^2+-dependent cell-cell adhesion. A2058TMG (A–E) and HaCaT cells (F–J) were left untreated (A, F) or treated with 4 mM EGTA for 40 min (B–E, G–J). The EGTA containing medium was then replaced with Ca^2+-containing medium in the presence of 10 μg/ml control IgG (C, H) for 1 h. After treatment with EGTA, cells were incubated for 1 h in medium containing 1.8 mM Ca^2+ and 10 ? g/ml function-blocking anti-lectin-like antibody (D, I), or anti-E-cadherin antibody (E, J). Green fluorescence shown in panels A to E is the GFP-tagged TM proteins, whereas panels F to J indicate the TM distribution by anti-EGF-like domain antibody detected with tetramethylrhodamine-conjugated anti-mouse antibody. […]

HaCaT cells = assay: Calcium-switch method, HaCaT cells; details: 4 mM EGTA, 40 min
Procedure: as §1, §2

Compound	ability to disperse the close clustering morphology of TMG culture cells ([1]; 20 mg/ml)	other results
O=C[C@H](O)[C@@H](O)[C@@H](O)[C@H](O)CO [D-galactose]	only mannose was found to be effective	
O=C[C@H](O)[C@@H](O)[C@H](O)[C@H](O)CO [D-glucose]	only mannose was found to be effective	
OC[C@H]1O[C@@H](O[C@H]2[C@H](O)[C@@H](O)C(O)O[C@@H]2CO)[C@H](O)[C@@H](O)[C@H]1O (stereo partly drawn) [D-lactose]	only mannose was found to be effective	
O=C[C@@H](O)[C@@H](O)[C@H](O)[C@H](O)CO [D-mannose]	effective in inducing of cell dispersion; also recorded: highest dispersing effect	
O=C[C@H](O)[C@@H](O)[C@H](O)CO [D-xylose]	only mannose was found to be effective	
O=C(O)CN(CCOCCOCCN(CC(=O)O)CC(=O)O)CC(=O)O [EGTA, ethyleneglycol-bis-(Amino-Ethyl-Ether) N,N,N′,N′-tetraacetic acid]		cell-to-cell contacts in EGTA-containing medium (A2058TMG cells): disrupted; cell-to-cell contacts in EGTA-containing medium (HaCaT cells): disrupted
chondroitin 4-sulfate [chondroitin sulfate A]	could induce cell dispersion	
chondroitin 6-sulfate [chondroitin sulfate C]	could induce cell dispersion	
dermatan sulfate [chondroitin sulfate B]	no effect	
heparin		ability to disperse the close clustering morphology of TMG culture cells ([1]; 15 mg/ml): minor inhibitory effect on the cell adhesion
